# Patent publication US20050165030A1, “Pharmaceutical compositions comprising a multifunctional phosphodiesterase inhibitor and an adenosine uptake inhibitor” (priority 2001, published 2005)
# Where two headings read alike, the source gives them in different places.
# What was measured:
# human washed platelets = experiment: collagen-induced aggregation of washed platelets; type: cell-based; settings: for inhibitory effect on washed platelet aggregation: alone: dipyridamole 1, 3 or 10 μM, cilostazol 30 or 100 nM, adenosine 1 μM; for inhibition of washed platelet aggregation: single agent + 1 μM adenosine (dipyridamole 1, 3, 10 μM; cilostazol 30 or 100 nM); for IC50: Homo sapiens, Platelet
# Description: Aggregation was quantified by the change in light transmission using an AG-10 Aggregation Analyzer (Kowa, Japan). Washed platelets were maintained at room temperature and the study was performed within 3 hours following blood collection. Cilostazol was dissolved in DMSO and adenosine was dissolved in water. […] Drug or vehicle (DMSO) was then added (0.4 μl) and incubated for another 3 minutes. […] The overall time of aggregation recorded was 15 minutes.
# [1] = system: adenosine A2A-expressing Chinese hamster ovary (CHO) cells; experiment: CRE-luciferase assay (intracellular cAMP) in CHO cells expressing human adenosine A2A receptor; type: cell-based; settings: range 0.5 μM to 10 μM
# Description: The level of luciferase expression reflects the concentration of intracellular cAMP. […] Therefore, the activation of the receptors would be reflected by luciferase expression, where the expression level can be measured by the luciferase activity assay. Co-transfection of the luciferase reporter vector with the vectors containing adenosine A2A receptors was carried out by calcium phosphate precipitation into Chinese hamster ovary (CHO) cells. Stable transfectants were selected with 1.0 mg/ml G418 (Life Technologies) for 12 days. The cell clones over-expressing functional adenosine A2A receptors were determined by luciferase expression under the stimulation of adenosine.
# The next day, the cells were washed once with F12K medium supplemented with 0.5% FCS and then incubated with 100 μl of the medium only (basal) or medium plus test agents for 4 hours at 37° C. After equilibrating to room temperature, 100 μl of detection substrate (Bright-Glo™ luciferase assay system, Promega, Madison, Wis.) were added to each well. The luciferase activity was measured after 5 minutes using a Mediators PhL luminescence plate reader (ImmTech, New Windsor, Md.). The value of luminescence (arbitrary unit) detected during half a second was taken as luciferase activity.
# [2] = system: platelets in human whole blood; experiment: whole blood platelet aggregation in vitro (collagen); type: cell-based; settings: for inhibition of platelet aggregation: alone: cilostazol 0.3-3 μM, dipyridamole 1 or 3 μM, 0.1 or 0.3 μg/ml collagen; for effect on platelet aggregation in whole blood: alone: cilostazol 10 or 30 μM, dipyridamole 0.1, 0.3, 1 or 3 μM, 0.5 μg/ml collagen
# Description: The electrodes were then placed in the cuvette and the sample was allowed to incubate at 37° C. while the instrument was calibrated. […] Dipyridamole was diluted in ethanol (EtOH) to a stock concentration of 100 mM. […] The suspension was allowed to incubate for 3 minutes before collagen was added. […] […] Data are expressed as percent of the values detected in the absence of any inhibition.
# whole blood = experiment: adenosine concentration in plasma of collagen-stimulated whole blood (HPLC); type: cell-based, human; settings: dipyridamole 1 μM, 5 minutes after 2 μg/ml collagen, n=3
# Description: Blood was drawn and mixed with recombinant human huridin (100 U/ml). The same procedure for platelet aggregation was used to stimulate these platelets with collagen (2 μg/ml). After a 5-minute incubation, 500 μl of WB were mixed quickly with 500 μl of ice-cold saline. The cells were spun at 20,000×g for 4 minutes at 4° C. Supernatant (600 μl) was first mixed with 300 μl PCA (2.5 N) and then neutralized with 300 μl of KHCO3 (2.5 M). Finally, the mixture was centrifuged at 20,000×g for 15 minutes at 4° C. The adenosine concentration in the supernatants was measured using reverse-phase high performance liquid chromatography (HPLC, Waters Alliance 2690) with a Hypersil 3μ C18 column (150 mm×4.6 mm) and a gradient from 5 to 20% methanol in 20 mM KH2PO4. Adenosine was detected using a diode array detector (Water 996) with an absorbance change at 258 nm and quantified by comparison of retention times and peak height with those of a known external standard. Quantification was performed using Waters Millennium 32 Client/Server software.
# [3] = system: whole blood platelet aggregation; experiment: ex vivo whole blood platelet aggregation, clinical crossover study; type: in vivo, human; settings: alone: cilostazol 100 mg, dipyridamole 200 mg
# Description: On study day 4, subjects received one 200 mg tablet of dipyridamole. […] The platelet aggregation was induced by the addition of collagen (final concentration of 0.3 μg/ml, Nycomed Arzneimittel, Munchen, Germany). The percentage aggregation was recorded at each time point. To compare the effect of drug treatments, the aggregation at 2-hour and 4-hour is normalized as a percentage to the values prior to dosing.
# [4] = system: isolated rabbit Langendorff hearts; experiment: cardiac function of isolated rabbit Langendorff hearts
# Description: This study was conducted in accordance with the “Guide for the Care And Use of Laboratory Animals”, published by the National Research Council, 1996, Washington D.C., and approved by the Institutional Animal Care and Use Committee of Otsuka Maryland Research Institute, LLC. […] A tracheotomy was performed and the animals were intubated. […] The respiratory rate was adjusted to keep arterial blood PO2, PCO2 and pH in the physiological range. […] Hearts were exposed through a mid-line incision of the chest, and quickly excised by an incision at the base of the heart and put into ice-cold Krebs-Henseleit bicarbonate buffer. The heart was then attached to a Langendorff apparatus by the aortic root, and perfused with non-recirculating Krebs-Henseleit buffer at a constant pressure of 75 mmHg. The perfusate was bubbled with 95% O2 and 5% CO2 gas mixture, and the bubbling rate was adjusted to maintain physiological pH (7.35-7.45). Perfusate temperature was maintained at 38° C. by a circulating waterjacket surrounding the buffer reservoirs. The heart was also maintained at 38° C. via a water-jacketed housing in which it was suspended. The open top of the jacket was covered with a piece of parafilm to maintain the humidity and temperature. The pulmonary artery around the right side of the aortic root was cannulated for collecting coronary effluent and for coronary flow rate measurement with a graduated cylinder. […] The pressure transducer was connected to a Grass Chart Recorder (Model 7) to record left ventricular pressure and its first derivative (dp/dt), and heart rate. Hearts with left ventricular developing pressure less than 85 mmHg at the end of the 15-min equilibrium period were not included in the study. The cardiac function indexes measured were LVDP (left ventricular developed pressure), dp/dtmax (the maximal value of the first derivative of the LVDP), heart rate, and coronary flow. […] Measurements for cardiac function were taken at the end of each 5 min drug treatment. The effect of drug treatment is expressed as the percent change of values before and after each drug treatment: % Change from Baseline=[(Value after drug−Value before drug)/Value before drug]×100 Statistical Analysis
# [5] = blood concentration during intravenous infusion; type: in vivo, rabbit; settings: cilostazol 0.225 mg/kg bolus + 0.0175 mg/kg/min i.v.; dipyridamole 20 μg/kg/min i.v.
# Description: Sixty minutes after the surgery, injection of vehicle or the drug combination was initiated. After 20 minutes, the gastrocnemius muscle of the left hindlimb was stimulated throughout the rest of the experiment. Twenty minutes after the stimulation (40 minute time point in FIG. 15), the left femoral artery was clamped for 20 minutes to induce ischemia and then released to allow reperfusion. The regional blood flow was determined by the injection at 0, 20, 40, 60, and 80 minutes of blue-green, yellow-green, orange, red and crimson fluorescent microspheres.
# adenosine uptake = settings: cited from earlier work; for IC50: read-out: IC50 of adenosine uptake inhibition
# [6] = 2 and 4 hours after a single dose of 200 mg, previous pharmacokinetic data; cited from earlier work
# [7] = system: adenosine uptake into washed human erythrocytes; experiment: [3H]adenosine uptake into washed erythrocytes; type: cell-based
# Description: Washed erythrocytes (wRBC) were prepared as follows.
# [8] = system: adenosine uptake into CHO cells over-expressing functional human A2A receptors; experiment: [3H]adenosine uptake into CHO cells over-expressing human A2A receptors; type: cell-based; settings: compared with platelets and erythrocytes, data not shown
# [9] = blood concentration after single oral dose; type: in vivo, human; settings: 2 and 4 hours after a single dose
# PDE3 = settings: Liu et al., 2000; read-out: potency for inhibition of PDE3; cited from earlier work
# [10] = system: isolated rabbit Langendorff hearts; settings: concentrations below 1 μM, previous studies; cited from earlier work
# [11] = dipyridamole 0.3, 1 or 3 μM with cilostazol
compound,measurement,setting,value
Nc1ncnc2c1ncn2[C@@H]1O[C@H](CO)[C@@H](O)[C@H]1O [adenosine],effect on collagen-induced platelet aggregation,"human washed platelets; 1 μM, by itself",little effect
same,inhibitory effect on washed platelet aggregation,human washed platelets,no effect
OCCN(CCO)c1nc(N2CCCCC2)c2nc(N(CCO)CCO)nc(N3CCCCC3)c2n1 [dipyridamole],inhibitory effect on washed platelet aggregation,human washed platelets,no significant inhibitory effect
same,inhibition of washed platelet aggregation,human washed platelets,enhanced the effect of dipyridamole significantly
same,dipyridamole concentration of peak enhancement of cilostazol effect on luciferase activity,[1],about 5 μM
same,inhibition of platelet aggregation,[2],did not cause any significant inhibition
same,effect on platelet aggregation in whole blood,[2],did not have a significant effect
same,platelet aggregation,"[2]; dipyridamole 1 μM, 2 μg/ml collagen",not affected
same,adenosine levels in whole blood plasma,whole blood,5.916 ± 0.641 µM
same,inhibition of ex vivo platelet aggregation,[3],neither cilostazol nor dipyridamole alone inhibited
same,effect on cardiac function,"[4]; dipyridamole 0.3, 1 or 3 μM alone",no significant effect
same,cilostazol-induced increase of cardiac contractility,[4]; [11],significantly reduced
same,cilostazol-induced increase of heart rate,[4]; [11],significantly reduced
same,cilostazol-induced increase in coronary flow,[4]; dipyridamole 1 and 3 μM with cilostazol 10 μM,augmented
same,blood concentration,[5],about 1 μM
same,IC50,adenosine uptake,10 nM
same,blood concentration,[6],about 2 μM
Nc1nc(NCCc2ccc(O)cc2)nc2nc(-c3ccco3)nn12 [ZM241385],effect on the synergistic effect of dipyridamole and cilostazol on whole blood aggregation,"[2]; ZM241385 0.1 μM, n=8",reverted back to the basal level of cilostazol alone
Cc1[nH]c(=O)c(C#N)cc1-c1ccncc1 [milrinone],effect on adenosine uptake,[7]; erythrocytes,virtually no effect
same,inhibition of [3H]adenosine uptake,[8],no effect
same,inhibitory effect on adenosine uptake,"adenosine uptake; at concentrations as high as 100 μM, Liu et al., 2000",no significant inhibitory effect
"O=C1CCc2cc(OCCCCc3nnnn3C3CCCCC3)ccc2N1 [cilostazol, 6-[4-(1-cyclohexyl-1H-tetrazol-5yl)butoxy]-3,4-dihydro-2(1H)-quinolinone]",effect on collagen-induced platelet aggregation,"human washed platelets; 1 μM, by itself",little effect
same,IC50,"human washed platelets; read-out: IC50 of Cilostazol on Platelet Aggregation, +Adenosine (1 μM)",380 ± 50 nM
same,IC50,"human washed platelets; read-out: IC50 of Cilostazol on Platelet Aggregation, +Adenosine + Dipyridamole (1 μM)",170 ± 40 nM
same,IC50,"human washed platelets; read-out: IC50 of Cilostazol on Platelet Aggregation, +Adenosine + Dipyridamole (3 μM)",110 nM
same,IC50,"human washed platelets; read-out: IC50 of Cilostazol on Platelet Aggregation, +Adenosine + Dipyridamole (10 μM)",10 ± 10 nM
same,IC50,"human washed platelets; read-out: IC50 of Cilostazol on Platelet Aggregation, cilostazol alone, washed platelets, collagen",2660 ± 410 nM
same,inhibitory effect on washed platelet aggregation,human washed platelets,no significant inhibitory effect
same,effect on collagen-induced platelet aggregation,human washed platelets; cilostazol 1 μM combined with adenosine 1 μM,completely inhibited
same,inhibition of washed platelet aggregation,human washed platelets,significant differences from controls
same,IC50,"[7]; Homo sapiens, Erythrocyte, washed erythrocytes, n=3, read-out: IC50 of adenosine uptake inhibition",~7000 nM
same,inhibition of platelet aggregation,[2],did not cause any significant inhibition
same,effect on platelet aggregation in whole blood,[2],did not have a significant effect
same,inhibition of ex vivo platelet aggregation,[3],neither cilostazol nor dipyridamole alone inhibited
same,blood concentration,[9],about 2 μM
same,coronary flow,[4]; cilostazol 3 or 10 μM,significantly increased
same,blood concentration,[5],about 1 μM
same,IC50,"adenosine uptake; various cells (rabbit cardiac myocytes, human vascular smooth muscle, endothelial cells), Liu et al., 2000",5000 to 10000 nM
same,IC50,PDE3,320 nM
same,effects on cardiac function,[10],minimal effects
